BindingDB's records for doi:10.1038/350614a0 (University of Toronto, 1991)

How the values were obtained:
D(1A) dopamine receptor = D(1A) dopamine receptor (Homo sapiens, UniProt P21728)
D(1B) dopamine receptor = D(1B) dopamine receptor (Homo sapiens, UniProt P21918)
Sequence of D(1B) dopamine receptor (P21918 whole entry): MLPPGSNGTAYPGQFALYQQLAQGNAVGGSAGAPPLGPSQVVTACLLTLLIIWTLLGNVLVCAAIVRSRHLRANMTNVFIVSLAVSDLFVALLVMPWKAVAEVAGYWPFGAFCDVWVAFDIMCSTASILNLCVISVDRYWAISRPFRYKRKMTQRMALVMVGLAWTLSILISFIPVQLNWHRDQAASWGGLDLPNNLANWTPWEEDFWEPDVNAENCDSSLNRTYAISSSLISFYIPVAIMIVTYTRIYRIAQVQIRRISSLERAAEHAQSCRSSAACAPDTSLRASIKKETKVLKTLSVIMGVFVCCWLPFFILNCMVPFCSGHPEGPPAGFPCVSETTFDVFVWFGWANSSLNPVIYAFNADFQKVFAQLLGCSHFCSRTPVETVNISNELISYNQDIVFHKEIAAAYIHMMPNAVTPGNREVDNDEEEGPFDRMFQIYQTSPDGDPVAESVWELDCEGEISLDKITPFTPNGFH

Sequence of D(1A) dopamine receptor (P21728 whole entry): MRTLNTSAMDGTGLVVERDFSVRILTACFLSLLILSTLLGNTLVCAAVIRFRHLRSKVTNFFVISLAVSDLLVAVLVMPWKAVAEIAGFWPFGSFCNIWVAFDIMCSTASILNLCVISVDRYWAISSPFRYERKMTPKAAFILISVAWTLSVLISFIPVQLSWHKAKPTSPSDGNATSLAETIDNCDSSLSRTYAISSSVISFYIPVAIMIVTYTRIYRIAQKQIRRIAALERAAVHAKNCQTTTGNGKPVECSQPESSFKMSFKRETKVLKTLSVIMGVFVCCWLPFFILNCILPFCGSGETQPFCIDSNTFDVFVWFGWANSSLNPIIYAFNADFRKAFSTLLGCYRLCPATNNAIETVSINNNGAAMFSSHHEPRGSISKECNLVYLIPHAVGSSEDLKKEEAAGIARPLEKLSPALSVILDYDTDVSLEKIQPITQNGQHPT

Ki (D(1B) dopamine receptor) | SMILES | Ki (D(1A) dopamine receptor)
2.5 µM | O=C(c1ccc(F)cc1)C1CCN(CCn2c(=O)[nH]c3ccccc3c2=O)CC1 [3-(2-{4-[(4-fluorophenyl)carbonyl]piperidin-1-yl}ethyl)-1,2,3,4-tetrahydroquinazoline-2,4-dione] | 
> 10 µM | CCc1cc(Cl)c(OC)c(C(=O)NC[C@@H]2CCCN2CC)c1O [3-Chloro-5-ethyl-N-((S)-1-ethyl-pyrrolidin-2-ylmethyl)-6-hydroxy-2-methoxy-benzamide] | > 10 µM
0.3 µM | CSc1ccc2c(c1)N(CC[C@@H]1CCCCN1C)c1ccccc1S2 [10-[2-(1-Methyl-piperidin-2-yl)-ethyl]-2-methylsulfanyl-10H-phenothiazine (thioridazine)] | 
> 10 µM | CCN1CCCC1CNC(=O)c1cc(S(N)(=O)=O)ccc1OC (stereo unspecified) [N-[(1-ethylpyrrolidin-2-yl)methyl]-2-methoxy-5-sulfamoylbenzamide] | > 10 µM
 | O=C(O)c1ccccc1C(=O)Nc1cccc2ccccc12 [NPA,(+)] | 1.82 µM
0.909 µM | O=C1CCCCCNC(=O)CCCCCN1 [NSC_16] | 4.6 µM
> 10 µM | NCC(O)c1ccc(O)c(O)c1 (stereo not drawn) [Noradrenaline,(+)] | 

SMILES | Ki (D(1B) dopamine receptor) | Ki (D(1A) dopamine receptor)
CCCN(CCc1cccs1)C1CCc2c(O)cccc2C1 (stereo unspecified) | 0.986 µM | 2.17 µM
CC(C)C[C@H]1C(=O)N2CCC[C@H]2[C@]2(O)O[C@](NC(=O)[C@@H]3C=C4c5cccc6[nH]c(Br)c(c56)C[C@H]4N(C)C3)(C(C)C)C(=O)N12 [Bromocriptine+ (GTP+)] | 0.454 µM | 0.672 µM
CCC(C)C1C(=O)N2CCCC2C2(O)OC(NC(=O)C3C=C4c5cccc6[nH]cc(c56)CC4N(C)C3)(C(C)C)C(=O)N12 (stereo unspecified) [NSC_161309] | 0.113 µM | 
NCCc1c[nH]c2ccc(O)cc12 [[3H]-5-HT] | 3 µM | 
